In PubChem BioAssay AID2060612 (Molecular Pharmacology Branch, DTP, NCI, 2025):
Blank lines part the entries; values can stand above or below the molecule they belong to.

Tested on: 565232-114-T-J1-PDC complex spheroid viability
Assay: Anticancer human tumor 565232-114-T-J1-PDC patient-derived bladder carcinoma cell line growth inhibition [CLK]
Conditions: for IC50: curve of first compound; for viability, T/C: stronger effect = lower value
Method in brief: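 Multi-cell-type spheroids combined patient-derived tumor cells with HUVEC endothelial cells and human mesenchymal stem cells. Paired agents were dosed in half-log steps down from about clinical Cmax, or from 10 microM where Cmax was unknown.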
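Also: spheroids exposed to compounds for 7 days before readout.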
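For viability, T/C in this document: 100% = DMSO vehicle wells with luminescence normalized to vehicle control.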

IC50 (second compound 0.0316 µM): > 300 nM
IC50 (second compound 0.1 µM): 105 nM
IC50 (second compound 0.316 µM): < 0.949 nM
IC50 (second compound 1 µM): < 0.949 nM
IC50 (second compound 3.16 µM): < 0.949 nM
IC50 (second compound 10 µM): < 0.949 nM
Compound: C=CC(=O)Nc1cc(Nc2nccc(-c3cn(C)c4ccccc34)n2)c(OC)cc1N(C)CCN(C)C + CNC(=O)c1ccc(Nc2nc(OC3CCCC3)c3c(-c4ccc5nc(C)oc5c4)c[nH]c3n2)c(OC)c1
viability, T/C (second compound 0.0316 µM, first compound 0.000949 µM): 84.3%
viability, T/C (second compound 0.0316 µM, first compound 0.003 µM): 92.5%
viability, T/C (second compound 0.0316 µM, first compound 0.00949 µM): 75.5%
viability, T/C (second compound 0.0316 µM, first compound 0.03 µM): 86.7%
viability, T/C (second compound 0.0316 µM, first compound 0.0949 µM): 87.6%
viability, T/C (second compound 0.0316 µM, first compound 0.3 µM): 86.1%
viability, T/C (second compound 0.1 µM, first compound 0.000949 µM): 49.8%
viability, T/C (second compound 0.1 µM, first compound 0.003 µM): 53.3%
viability, T/C (second compound 0.1 µM, first compound 0.00949 µM): 51.1%
viability, T/C (second compound 0.1 µM, first compound 0.03 µM): 49.2%
viability, T/C (second compound 0.1 µM, first compound 0.0949 µM): 51.6%
viability, T/C (second compound 0.1 µM, first compound 0.3 µM): 40.5%
viability, T/C (second compound 0.316 µM, first compound 0.000949 µM): 28.5%
viability, T/C (second compound 0.316 µM, first compound 0.003 µM): 31.7%
viability, T/C (second compound 0.316 µM, first compound 0.00949 µM): 28.5%
viability, T/C (second compound 0.316 µM, first compound 0.03 µM): 31.1%
viability, T/C (second compound 0.316 µM, first compound 0.0949 µM): 35.7%
viability, T/C (second compound 0.316 µM, first compound 0.3 µM): 26.2%
viability, T/C (second compound 1 µM, first compound 0.000949 µM): 22.4%
viability, T/C (second compound 1 µM, first compound 0.003 µM): 27.3%
viability, T/C (second compound 1 µM, first compound 0.00949 µM): 21.9%
viability, T/C (second compound 1 µM, first compound 0.03 µM): 26.4%
viability, T/C (second compound 1 µM, first compound 0.0949 µM): 18.1%
viability, T/C (second compound 1 µM, first compound 0.3 µM): 22%
viability, T/C (second compound 3.16 µM, first compound 0.000949 µM): 18.5%
viability, T/C (second compound 3.16 µM, first compound 0.003 µM): 20.7%
viability, T/C (second compound 3.16 µM, first compound 0.00949 µM): 17.6%
viability, T/C (second compound 3.16 µM, first compound 0.03 µM): 21.4%
viability, T/C (second compound 3.16 µM, first compound 0.0949 µM): 15.2%
viability, T/C (second compound 3.16 µM, first compound 0.3 µM): 14.3%
viability, T/C (second compound 10 µM, first compound 0.000949 µM): 19.9%
viability, T/C (second compound 10 µM, first compound 0.003 µM): 18.8%
viability, T/C (second compound 10 µM, first compound 0.00949 µM): 16.1%
viability, T/C (second compound 10 µM, first compound 0.03 µM): 18.2%
viability, T/C (second compound 10 µM, first compound 0.0949 µM): 14%
viability, T/C (second compound 10 µM, first compound 0.3 µM): 11.7%

IC50 (second compound 0.0316 µM): > 10000 nM
IC50 (second compound 0.1 µM): < 31.6 nM
IC50 (second compound 0.316 µM): < 31.6 nM
IC50 (second compound 1 µM): < 31.6 nM
IC50 (second compound 3.16 µM): < 31.6 nM
IC50 (second compound 10 µM): < 31.6 nM
Compound: CC(Nc1ccc2c(c1)OCCn1cc(N3C(=O)OCC3C(F)F)nc1-2)C(N)=O (centres undefined) + CNC(=O)c1ccc(Nc2nc(OC3CCCC3)c3c(-c4ccc5nc(C)oc5c4)c[nH]c3n2)c(OC)c1
viability, T/C (second compound 0.0316 µM, first compound 0.0316 µM): 87.5%
viability, T/C (second compound 0.0316 µM, first compound 0.1 µM): 93.6%
viability, T/C (second compound 0.0316 µM, first compound 0.316 µM): 88.1%
viability, T/C (second compound 0.0316 µM, first compound 1 µM): 100%
viability, T/C (second compound 0.0316 µM, first compound 3.16 µM): 101%
viability, T/C (second compound 0.0316 µM, first compound 10 µM): 101%
viability, T/C (second compound 0.1 µM, first compound 0.0316 µM): 35.1%
viability, T/C (second compound 0.1 µM, first compound 0.1 µM): 34.1%
viability, T/C (second compound 0.1 µM, first compound 0.316 µM): 37.4%
viability, T/C (second compound 0.1 µM, first compound 1 µM): 39.9%
viability, T/C (second compound 0.1 µM, first compound 3.16 µM): 33.6%
viability, T/C (second compound 0.1 µM, first compound 10 µM): 29.2%
viability, T/C (second compound 0.316 µM, first compound 0.0316 µM): 21.4%
viability, T/C (second compound 0.316 µM, first compound 0.1 µM): 20.2%
viability, T/C (second compound 0.316 µM, first compound 0.316 µM): 23.8%
viability, T/C (second compound 0.316 µM, first compound 1 µM): 23.7%
viability, T/C (second compound 0.316 µM, first compound 3.16 µM): 19.9%
viability, T/C (second compound 0.316 µM, first compound 10 µM): 18%
viability, T/C (second compound 1 µM, first compound 0.0316 µM): 15.5%
viability, T/C (second compound 1 µM, first compound 0.1 µM): 15.3%
viability, T/C (second compound 1 µM, first compound 0.316 µM): 12.6%
viability, T/C (second compound 1 µM, first compound 1 µM): 14.9%
viability, T/C (second compound 1 µM, first compound 3.16 µM): 13.1%
viability, T/C (second compound 1 µM, first compound 10 µM): 9.75%
viability, T/C (second compound 3.16 µM, first compound 0.0316 µM): 9.27%
viability, T/C (second compound 3.16 µM, first compound 0.1 µM): 10.4%
viability, T/C (second compound 3.16 µM, first compound 0.316 µM): 9.44%
viability, T/C (second compound 3.16 µM, first compound 1 µM): 10.1%
viability, T/C (second compound 3.16 µM, first compound 3.16 µM): 6.97%
viability, T/C (second compound 3.16 µM, first compound 10 µM): 10.2%
viability, T/C (second compound 10 µM, first compound 0.0316 µM): 12.9%
viability, T/C (second compound 10 µM, first compound 0.1 µM): 10.9%
viability, T/C (second compound 10 µM, first compound 0.316 µM): 13.1%
viability, T/C (second compound 10 µM, first compound 1 µM): 9.16%
viability, T/C (second compound 10 µM, first compound 3.16 µM): 7.38%
viability, T/C (second compound 10 µM, first compound 10 µM): 5.93%
